Experimental data: patent publication US20200087248A1, “Fluoroallylamine Derivative And Use Thereof” (SICHUAN KELUN-BIOTECH BIOPHARMACEUTICAL CO., LTD., priority 2017, published 2020)
Where a name gives a salt, the structure may show the parent alone.

How the values were obtained:
VAP-1 = molecular target: T1, VAP-1 (Homo sapiens, UniProt Q16853); test: Inhibition of the enzymatic activity of VAP-1 in vitro (Amplex Red); format: biochemical; conditions: VAP-1 protein about 20 nM, 10 min pre-incubation, benzylamine substrate; read-out: IC50, inhibition against the enzymatic activity of VAP-1
T1 construct: purchased R&D Systems
T1 sequence (Q16853 1-763): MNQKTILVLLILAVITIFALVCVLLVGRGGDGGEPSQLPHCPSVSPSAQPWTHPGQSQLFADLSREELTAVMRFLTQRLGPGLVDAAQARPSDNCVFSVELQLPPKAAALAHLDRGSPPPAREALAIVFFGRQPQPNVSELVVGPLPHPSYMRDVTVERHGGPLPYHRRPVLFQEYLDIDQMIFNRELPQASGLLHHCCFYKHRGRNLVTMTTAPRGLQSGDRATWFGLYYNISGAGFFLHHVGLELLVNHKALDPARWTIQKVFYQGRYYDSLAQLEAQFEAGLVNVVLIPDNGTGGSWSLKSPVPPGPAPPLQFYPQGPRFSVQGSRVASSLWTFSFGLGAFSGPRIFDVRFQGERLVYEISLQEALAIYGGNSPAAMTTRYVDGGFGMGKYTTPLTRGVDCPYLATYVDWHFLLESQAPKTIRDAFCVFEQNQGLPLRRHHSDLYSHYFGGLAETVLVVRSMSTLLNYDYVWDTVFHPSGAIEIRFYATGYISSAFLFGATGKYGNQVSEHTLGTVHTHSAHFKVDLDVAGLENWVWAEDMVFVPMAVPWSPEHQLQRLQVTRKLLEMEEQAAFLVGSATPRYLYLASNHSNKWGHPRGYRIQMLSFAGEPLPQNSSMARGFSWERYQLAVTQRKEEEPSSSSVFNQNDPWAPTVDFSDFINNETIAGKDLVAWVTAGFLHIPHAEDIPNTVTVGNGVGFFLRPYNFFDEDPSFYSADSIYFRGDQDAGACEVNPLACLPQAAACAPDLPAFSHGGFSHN
Procedure: Inhibition Experiment Against the Enzymatic Activity of VAP-1(Vascular Adhesion Protein 1) in vitro
Test kit: Amplex® Red Monoamine Oxidase Assay, Manufacturer: ThermoFisher
Reaction buffer solution: 50 mM PBS, pH 7.4
Enzyme: VAP-1, Manufacturer: R&D Systems
VAP-1 protein (about 20 nM) and different concentrations of the test compound were pre-incubated at room temperature for 10 minutes, followed by an addition of […] benzylamine hydrochloride, 1 U/mL HRP and 200 μM Amplex Red reagent according to the specification of the test kit to start the reaction. The reaction plate was placed in the enzyme marker, and in kinetic mode, fluorescence signals were measured at Ex/Em=540/590 nm. The relative inhibition activity of each concentration group was calculated, wherein the ratio (slope) of fluorescence signal to reaction time in the linear range is the reaction rate, the vehicle group (DMSO) is the negative control, and the reaction buffer solution group (without enzymes and the compounds) is the blank control. The half inhibition concentration (IC50) of the compound was calculated according to four-parameter model fitting curve.

MAO-A = molecular target: T2, MAO-A (Homo sapiens, UniProt P21397); test: Inhibition of the enzymatic activity of MAO-A; format: biochemical; conditions: range of IC50 from inhibition rates at 100 μM and 10 μM; read-out: IC50, inhibition against the enzymatic activity of MAO-A
T2 construct: purchased Sigma Aldrich
T2 sequence (P21397 1-527): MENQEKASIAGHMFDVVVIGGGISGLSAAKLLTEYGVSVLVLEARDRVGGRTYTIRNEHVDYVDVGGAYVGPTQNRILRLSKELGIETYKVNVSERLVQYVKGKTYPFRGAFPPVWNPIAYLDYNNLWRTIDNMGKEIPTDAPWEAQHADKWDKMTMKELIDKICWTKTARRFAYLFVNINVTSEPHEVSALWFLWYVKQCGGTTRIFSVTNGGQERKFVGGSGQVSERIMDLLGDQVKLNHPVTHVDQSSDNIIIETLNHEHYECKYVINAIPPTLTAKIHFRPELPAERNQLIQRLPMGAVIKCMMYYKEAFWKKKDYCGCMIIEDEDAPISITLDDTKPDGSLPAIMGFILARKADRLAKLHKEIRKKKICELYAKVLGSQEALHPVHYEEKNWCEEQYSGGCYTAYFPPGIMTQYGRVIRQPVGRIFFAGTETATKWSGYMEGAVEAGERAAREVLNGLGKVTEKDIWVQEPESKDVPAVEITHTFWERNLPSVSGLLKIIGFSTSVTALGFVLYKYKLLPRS
Procedure: Inhibition Experiment Against the Enzymatic Activity of MAO-A (Monoamine Oxidase Type A)
(§1) 1. Test kit: Amplex® Red Monoamine Oxidase Assay, Manufacturer: ThermoFisher
2. Reaction Buffer Solution: 50 mM PBS, pH 7.4
Protein: MAO-A, manufacturer: Sigma Aldrich
According to the method as described in the specification of the kit, MAO-A protein (15 μg/ml) and different concentrations of the test compound were pre-incubated at room temperature for 30 minutes, and then 200 μM p-tyramine hydrochloride, 1 U/mL HRP and 200 µM Amplex Red reagent were added to start the reaction. In kinetic mode, fluorescence signals were measured at Ex/Em=540/590 nm. The inhibition rate of each concentration group was calculated, wherein the ratio of fluorescence signal to reaction time ratio is the reaction rate, the vehicle group (DMSO) is the negative control, and the reaction buffer solution group (without enzymes and the compounds) is the blank control.
Percent inhibition rate (%)=(1-(reaction rate of each compound concentration group−reaction rate of the blank group)/(reaction rate of vehicle group−reaction rate of the blank group))*100.
According to the above method, the inhibition of the compound against the enzymatic activity of MAO-A was measured, and the range of IC50 was obtained according to the inhibition rates at 100 μM and 10 μM.

MAO-B = molecular target: T3, MAO-B (Homo sapiens, UniProt P27338); test: Inhibition of the enzymatic activity of MAO-B; format: biochemical; conditions: range of IC50 from inhibition rates at 10 μM, 1 μM and 0.1 μM; read-out: IC50, inhibition against the enzymatic activity of MAO-B
T3 construct: purchased Sigma Aldrich
T3 sequence (P27338 1-520): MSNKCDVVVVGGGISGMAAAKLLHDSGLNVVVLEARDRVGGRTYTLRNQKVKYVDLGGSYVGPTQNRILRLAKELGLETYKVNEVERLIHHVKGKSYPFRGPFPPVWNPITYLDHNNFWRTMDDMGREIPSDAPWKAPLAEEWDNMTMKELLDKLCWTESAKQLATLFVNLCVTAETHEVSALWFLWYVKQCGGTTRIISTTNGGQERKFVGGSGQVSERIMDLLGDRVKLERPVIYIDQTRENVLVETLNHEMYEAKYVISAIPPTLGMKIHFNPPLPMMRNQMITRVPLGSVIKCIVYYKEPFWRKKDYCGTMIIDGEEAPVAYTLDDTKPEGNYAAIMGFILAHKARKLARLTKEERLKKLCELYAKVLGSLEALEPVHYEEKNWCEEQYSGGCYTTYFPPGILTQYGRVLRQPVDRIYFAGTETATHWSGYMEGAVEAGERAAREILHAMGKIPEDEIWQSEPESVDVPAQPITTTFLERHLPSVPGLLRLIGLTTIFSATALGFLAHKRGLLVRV
Procedure: Inhibition Experiment Against the Enzymatic Activity of MAO-B (Monoamine Oxidase Type B)
as §1
Protein: MAO-B, manufacturer: Sigma Aldrich
According to the method as described in the specification of the test kit, MAO-B protein (5 μg/ml) and different concentrations of the test compound were pre-incubated at room temperature for 10 minutes, and then 150 μM benzylamine hydrochloride, 1 U/mL HRP and 200 μM Amplex Red reagent were added to start the reaction. The relative inhibition rate of each concentration group were calculated according to the experimental method of MAO-A.
According to the above method, the inhibition of the compound against the activity of the MAO-B was measured, and the range of IC50 was obtained according to the inhibition rates at 10 μM, 1 μM and 0.1 μM.

hERG = molecular target: T4, hERG (Homo sapiens, UniProt Q12809); test: hERG fluorescence polarization inhibition experiment; conditions: human, probe tracer having high affinity to hERG (kit tracer), hERG cell membrane, 25° C. 2 hours, read-out: hERG (IC50 range, competitive binding vs tracer)
T4 construct: purchased ThermoFisher; host or cells: hERG cell membrane supplied with the kit
Procedure: hERG (Ether-a-go-go-related Gene Potassium Channel) Inhibition Experiment
Reagent: Predictor™ hERG Fluorescence Polarization Assay Kit, Manufacturer: ThermoFisher
The above test kit was used to evaluate the potential of the compound for inducing heart QT prolongation. According to the method as indicated in the specification of the test kit, the test compound, the positive control (E4031) and negative control (Experimental buffer solution) in the kit were added to a microwell plate containing hERG cell membrane, and then a tracer having high affinity to hERG was added. The microwell plate was then incubated at 25° C. for 2 hours, a BMG PHAREStar polyfunctional enzyme marker was used to test the variations in the fluorescent polarization value. By calculating the percent inhibition rates (%) at different concentrations, the range of the half inhibition concentration (IC50) was determined:
Percent inhibition rate (%)=(1-(mP of the test compound-mP of 30 μM E4031)/(mP of experimental buffer solution-mP of 30 μM E4031))*100.

DAO = molecular target: T5, DAO (Homo sapiens, UniProt P19801); test: Inhibition of the enzymatic activity of DAO; format: biochemical; conditions: DAO 15 μg/ml, histamine substrate; read-out: IC50, inhibition against the enzymatic activity of DAO
T5 construct: purchased R&D Systems
T5 sequence (P19801 20-751): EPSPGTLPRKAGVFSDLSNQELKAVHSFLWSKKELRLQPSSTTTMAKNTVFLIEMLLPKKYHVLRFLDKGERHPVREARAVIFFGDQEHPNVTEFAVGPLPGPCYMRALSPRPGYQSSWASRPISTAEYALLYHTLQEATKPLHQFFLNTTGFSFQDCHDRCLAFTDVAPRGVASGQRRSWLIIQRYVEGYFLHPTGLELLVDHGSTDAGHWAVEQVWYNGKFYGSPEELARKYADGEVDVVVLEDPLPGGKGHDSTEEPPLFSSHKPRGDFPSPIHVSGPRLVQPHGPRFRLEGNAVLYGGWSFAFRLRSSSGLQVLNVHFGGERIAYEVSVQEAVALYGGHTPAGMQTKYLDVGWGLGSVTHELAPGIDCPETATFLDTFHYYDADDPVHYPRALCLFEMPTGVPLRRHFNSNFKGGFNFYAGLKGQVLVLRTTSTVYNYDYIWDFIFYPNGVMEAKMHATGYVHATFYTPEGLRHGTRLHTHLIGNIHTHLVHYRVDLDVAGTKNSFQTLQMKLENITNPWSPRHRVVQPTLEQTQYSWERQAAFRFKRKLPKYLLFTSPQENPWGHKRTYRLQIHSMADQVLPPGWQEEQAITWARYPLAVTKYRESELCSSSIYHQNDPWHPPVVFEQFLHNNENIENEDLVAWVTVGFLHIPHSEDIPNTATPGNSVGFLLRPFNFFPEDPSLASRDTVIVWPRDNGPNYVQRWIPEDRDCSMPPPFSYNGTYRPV
Procedure: Inhibition Experiment Against the Enzymatic Activity of DAO (Diamine Oxidase)
as §1
Protein: DAO, manufacturer: R&D Systems
DAO protein (15 μg/ml) and different concentrations of the test compound were pre-incubated at room temperature for 20 minutes, and then 100 μM Histamine-dihydrochloride, 1 U/mL HRP and 200 μM Amplex Red reagent were added to start the reaction. The inhibition rate of each concentration groups were calculated according to the experimental method of MAO-A.

T4 sequence (Q12809 whole entry): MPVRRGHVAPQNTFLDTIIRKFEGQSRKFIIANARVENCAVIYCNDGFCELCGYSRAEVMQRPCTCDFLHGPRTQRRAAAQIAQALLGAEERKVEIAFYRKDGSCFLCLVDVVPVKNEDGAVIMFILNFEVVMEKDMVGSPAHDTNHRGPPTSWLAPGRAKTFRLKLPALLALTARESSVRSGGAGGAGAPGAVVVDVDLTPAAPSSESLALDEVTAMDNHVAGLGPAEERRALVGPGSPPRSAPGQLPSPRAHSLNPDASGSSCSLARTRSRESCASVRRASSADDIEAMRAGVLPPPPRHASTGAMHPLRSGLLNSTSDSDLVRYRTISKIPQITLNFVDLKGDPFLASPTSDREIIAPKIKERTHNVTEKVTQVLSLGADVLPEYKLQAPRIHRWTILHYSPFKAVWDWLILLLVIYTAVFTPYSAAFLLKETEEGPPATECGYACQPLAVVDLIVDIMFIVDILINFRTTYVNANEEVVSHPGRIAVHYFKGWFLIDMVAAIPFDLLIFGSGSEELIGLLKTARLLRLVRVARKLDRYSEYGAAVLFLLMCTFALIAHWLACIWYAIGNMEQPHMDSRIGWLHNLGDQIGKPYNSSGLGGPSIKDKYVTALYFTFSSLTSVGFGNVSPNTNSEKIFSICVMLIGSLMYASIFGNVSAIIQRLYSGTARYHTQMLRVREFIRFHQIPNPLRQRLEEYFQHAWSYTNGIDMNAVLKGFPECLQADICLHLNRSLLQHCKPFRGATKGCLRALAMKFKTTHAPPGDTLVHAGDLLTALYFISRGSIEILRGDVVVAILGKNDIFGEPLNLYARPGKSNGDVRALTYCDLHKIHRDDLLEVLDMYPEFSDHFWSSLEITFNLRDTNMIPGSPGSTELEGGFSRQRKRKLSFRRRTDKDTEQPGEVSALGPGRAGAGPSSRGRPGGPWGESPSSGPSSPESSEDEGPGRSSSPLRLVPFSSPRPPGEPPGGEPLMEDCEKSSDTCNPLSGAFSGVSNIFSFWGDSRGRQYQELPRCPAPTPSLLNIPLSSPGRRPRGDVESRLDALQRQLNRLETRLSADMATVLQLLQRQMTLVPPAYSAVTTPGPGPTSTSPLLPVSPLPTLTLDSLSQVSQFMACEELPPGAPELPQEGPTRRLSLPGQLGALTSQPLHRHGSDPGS

| Compound | IC50 (VAP-1) [nM] | IC50 (MAO-A) [nM] | IC50 (MAO-B) [nM] | IC50 at 2 h (hERG) [nM] | IC50 (DAO) [nM] |
| --- | --- | --- | --- | --- | --- |
| NC/C(=C/F)COc1ccc(C(=O)NC2CCOCC2)cc1 [TM76-Z, (Z)-N-(tetrahydro-2H-pyran-4-yl)-4-((2-aminomethyl-3-fluoroallyl)oxy)-benzamide trifluoroacetate] | 1.8 ± 0.2 | > 100000 | > 100 | – | – |
| NC/C(=C/F)COc1ccc(C(=O)Nc2ccc3c(c2)OCCO3)cc1 [TM114-Z, (Z)-4-((2-aminomethyl-3-fluoroallyl)oxy)-N-(2,3-dihydrobenzo[b][1,4]dioxa-6-yl)benzamide trifluoroacetate] | 0.8 ± 0.1 | > 10000 | – | – | – |
| NC/C(=C\F)COc1ccc(C(=O)NCc2ccccn2)cc1 [TM112-E, (E)-4-((2-aminomethyl-3-fluoroallyl)oxy)-N-(pyridin-2-ylmethyl)benzamide trifluoroacetate] | 3.2 ± 0.4 | > 100000 | > 100 | – | – |
| (Z)-6-((2-(methylamino)-3-fluoroallyl)oxy)-2-methyl-3,4-dihydroisoquinolin-1(2H)-one trifluoroacetate [TM66-Z] | 1.6 ± 0.2 | – | > 10000 | – | – |
| NC/C(=C/F)COc1ccc2c(c1)CNC2=O [TM77-Z, (Z)-5-((2-aminomethyl-3-fluoroallyl)oxy)isoindol-1-one trifluoroacetate] | – | > 100000 | – | > 10000 | – |
| NC/C(=C\F)COc1ccc(C(=O)Nc2ccc3c(c2)OCCO3)cc1 [TM114-E, (E)-4-((2-aminomethyl-3-fluoroallyl)oxy)-N-(2,3-dihydrobenzo[b][1,4]dioxa-6-yl)benzamide trifluoroacetate] | 1.1 ± 0.2 | > 10000 | – | – | – |
| (Z)-6-((2-(methylamino)-3-fluoroallyl)oxy)-3,3-dimethyl-3,4-dihydroisoquinolin-1(2H)-one trifluoroacetate [TM38-Z] | 2.9 ± 0.3 | – | > 10000 | – | > 100 |
| NC/C(=C/F)COc1ccc2c(c1)C(=O)CC2 [TM7-Z, (Z)-6-((2-aminomethyl-3-fluoroallyl)oxy)-2,3-dihydro-1-indenone trifluoroacetate] | 3.8 ± 0.4 | – | > 10000 | – | > 100 |
